Entries after “also recorded” stand apart in the source; their conditions may differ. Where two headings read alike, the source gives them in different places. Blank lines part the entries; values can stand above or below the molecule they belong to. Non-standard residues stand in square brackets, D forms with d. Residues, ends and D or L forms follow the SMILES beside them. NMeF = CN[C@@H](Cc1ccccc1)C(=O)O; Cha = N[C@@H](CC1CCCCC1)C(=O)O; dCha = N[C@H](CC1CCCCC1)C(=O)O
Tests used:
[1] = system: C5a receptor; details: literature; cited from earlier work
[2] = system: chemokinetic response; details: Mollison et al.; cited from earlier work
[3] = system: degranulation; details: Mollison et al., cited from earlier work
[4] = system: neutrophils; details: Drapeau et al.; cited from earlier work
[5] = system: human neutrophils; experiment: Inhibition of C5a induced degranulation (MPO release); assay type: cell-based
Procedure: (§1) FIG. 7A and 7B. […] These concentrations of the stimulating agents released 22% and 19% of the total cellular MPO, respectively.
(§2) This assay was performed on human neutrophils as previously reported and it is a measure of C5a or peptide induced exocytosis (Rollins, T. E. and Springer, M. S. (1985) J. Biol. Chem. 260, 7157-7160).

[6] = system: human neutrophil membranes; experiment: Inhibition of C5a stimulated GTPase activity; assay type: biochemical
Procedure: as §1
The method of Kupper et al. (Kupper, R. W., Dewald, B., Jakobs, K. H., Baggiolini, M. and Gierschik, P. (1992) Biochem. J. 282, 429-434) was adapted for use in microtiter plates. Neutrophil membranes were suspended in 50 mM triethanolamine-HCl, 5 mM MES, pH 7.3, containing 1 mM EDTA, 5 mM MgCl2, 143 mM NaCl, 0.16 % BSA, 1 mM ouabain, 1 mM AMP-PNP, 0.5 mM ATP, 2.5 U/mL creatine phosphokinase,. 10 mM creatine phosphate, 0.1 mM PMSF and 10 ng/mL each of leupeptin, aprotinin and chymostatin. 50 μL of membranes containing 1-5 μg protein were added to 50 μL of the same buffer containing the test agent and 0.25 μM [γ-^32 P]-GTP (2,000 cpm/pmol) in the wells of a U-shaped microtiter plate. After incubation for 15-30 rain at 29° C., 100 μL of a 10% (w/v) charcoal suspension in 100 mM H3 PO4 was added and plates were centrifuged at 2000 rpm for 5 min. 100 μL of the supernatant was transferred to an Optiplate microtiter plate and 100 μL of Microscint-40 scintillation cocktail was added. Plates were counted in a Packard TopCount microtiter plate counter.

[7] = system: human neutrophils; experiment: Inhibition of IL-8 induced degranulation (specificity control); assay type: cell-based; details: 8 nM IL-8, FIG. 7A
Procedure: as §1, §2

[8] = target: T1, C5a receptor (Homo sapiens, UniProt P21730); experiment: biochemical; assay type: binding
T1 construct: followed by a 20 μL aliquot of neutrophil membrane; endogenous in cells
T1 sequence (P21730 1-350): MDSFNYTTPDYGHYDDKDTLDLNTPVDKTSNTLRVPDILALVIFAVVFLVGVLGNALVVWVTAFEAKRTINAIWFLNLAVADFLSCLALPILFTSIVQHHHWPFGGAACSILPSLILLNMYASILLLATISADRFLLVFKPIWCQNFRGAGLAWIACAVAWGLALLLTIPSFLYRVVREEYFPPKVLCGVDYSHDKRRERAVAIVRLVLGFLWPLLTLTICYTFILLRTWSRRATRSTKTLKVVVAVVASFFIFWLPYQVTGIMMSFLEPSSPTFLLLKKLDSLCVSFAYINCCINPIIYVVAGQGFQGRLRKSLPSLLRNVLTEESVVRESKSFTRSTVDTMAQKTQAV
Procedure: Initially, we attempted to conduct binding studies with ^125 I radiolabeled C009: ^125 I-Tyr Phe Lys Ala Cha Cha Leu dPhe Arg, SEQ.ID:1:, wherein Cha is cyclohexylalanine, and dPhe is the D isomer of phenylalanine. This compound is a C5a agonist displaying a Ki for C5a of 8 nM. The presence of the tyrosine allowed us to radioiodinate the peptide and establish a binding assay in which both C5a (IC50=0.1 nM) and unlabeled C009 (IC50 =10 nM) inhibit the binding of ^125 I-C009 with concentration dependencies similar to those obtained from competition experiments against ^125 I-C5a.
In FIG. 1, unlabeled C013 is used to compete with ^125 I-labeled C5a. […] In FIG. 2, the C013 is ^125 I labeled. Unlabeled C5a and unlabeled C013 are each used to compete the labeled C013 from C5a binding sites on the membranes. […] In FIG. 3a, ^125 I-C5a is competed from its binding site by unlabeled C064 and unlabeled, natural C5a (as opposed to recombinant C5a, which, however, may also obviously may be used for these purposes). […] In FIG. 3b, the inverse experiment is shown, wherein ^125 I-C064 is displaced by unlabeled C064 and unlabeled nC5a.
Peptide (5 nMoles) are added to 40μL of 0.1 M sodium phosphate, pH 7.6, in a tube, followed by 2 mCi of ^125 I in 20 μL. 10 μL of a freshly made 0.5 mg/mL solution of chloramine T is then added. After 30 seconds of incubation, 10 μL of a freshly prepared 2 mg/mL solution of Na2 S2 O3 is added, the tube is vortexed, and the sample loaded onto a Vydac C4 reverse phase column. The column is developed with a TFA/acetonitrile gradient and the iodinated peptide is isolated. The material is stored at 4° C. in the elution buffer.
To 205 μL binding buffer (50 mM HEPES, pH 7.2, containing 5 mM MgCl2, 1mM CaCl2, 0.5% BSA) in a polypropylene tube is added 30,000CPM of the ^125 I peptide in 20 μL, and 5 μL of a known dilution of the test compound or diluent, followed by a 20 μL aliquot of neutrophil membrane [equivalent to 500,000 neutrophils; Rollins, T.E. et al., J. Biol Chem. 260:7157 (1985); see also U.S. Pat. No. 5,177,190, herein incorporated by reference].
The assay mixture is incubated for 2 hours at 29° C. Binding buffer (2 mL) is then added, the tube is vortexed, and the contents filtered over a Wattmann GF/C filter soaked in 0.33% polyethylenimine. An additional aliquot of binding buffer (2 mL) is added to the tube to rinse the tube, and is then used to wash the filter. The filters are removed from the apparatus and counted. Non-specific backgrounds are determined by performing assays in the presence of either 10 nM C5a, or 1 μM unlabeled peptide. Compounds which inhibit the binding of the labeled peptide are considered to be potential active compounds.

[9] = labeled ligand 125I-C009, read-out: IC50 for inhibition of binding of 125I-C009

Molecule: CN[C@@H](Cc1ccccc1)C(=O)N[C@@H](CCCCN)C(=O)N1CCC[C@H]1C(=O)N[C@H](CC1CCCCC1)C(=O)N[C@@H](Cc1ccccc1)C(=O)N[C@H](CCCNC(=N)N)C(=O)O [C026, NMeF--K--P-dCha-F-dR] (H-[NMeF]KP[dCha]F[dR]-OH)
- agonist properties in words [1]: reduced agonist properties; also recorded: behaved as an agonist in other assays
- chemokinetic response [2]: only a small chemokinetic response
- degranulating activity in words [3]: not only failed to stimulate degranulation, it acted as an antagonist for this property
- degranulating activity in words ([3]; listed as NMeF--K--P-dCha-F-dR): totally devoid of degranulating activity
- stimulation of superoxide release from neutrophils [4]: failed to stimulate superoxide release from neutrophils

Molecule: CN[C@@H](Cc1ccccc1)C(=O)N[C@@H](CCCCN)C(=O)N1CCC[C@H]1C(=O)N[C@H](CC1CCCCC1)C(=O)N[C@@H](CC1CCCCC1)C(=O)N[C@H](CCCNC(=N)N)C(=O)O [C028, MePhe Lys Pro dCha Cha dArg] (H-[NMeF]KP[dCha][Cha][dR]-OH)
- degranulating activity in words [3]: exhibited normal degranulating activity

Second part, led by results:

- IC50 ([5]; FIG. 7A, challenge 0.4 nM C5a): 100 nM
- IC50 ([6]; FIG. 7B, 3 nM C5a): 3000 nM
Molecule: CN[C@@H](Cc1ccccc1)C(=O)N[C@@H](CCCCN)C(=O)N1CCC[C@H]1C(=O)N[C@H](CC1CCCCC1)C(=O)N[C@@H](Cc1c[nH]c2ccccc12)C(=O)N[C@H](CCCNC(=N)N)C(=O)O [C089]
- inhibition of C5a stimulated degranulation in words [5]: inhibits C5a stimulated degranulation
- inhibition of C5a stimulated G protein activation in words [6]: inhibits C5a stimulated degranulation and G protein activation
- effect on IL-8 induced degranulation [7]: little effect on IL-8 induced degranulation

- IC50 [8, 9]: 10 nM
Molecule: CC(C)C[C@H](NC(=O)[C@H](CC1CCCCC1)NC(=O)[C@H](CC1CCCCC1)NC(=O)[C@H](C)NC(=O)[C@H](CCCCN)NC(=O)[C@H](Cc1ccccc1)NC(=O)[C@@H](N)Cc1ccc(O)cc1)C(=O)N[C@H](Cc1ccccc1)C(=O)N[C@@H](CCCNC(=N)N)C(=O)O [C009, Tyr Phe Lys Ala Cha Cha Leu dPhe Arg] (H-YFKA[Cha][Cha]L[dF]R-OH)
- change of binding affinity by radioiodination [8]: about a four-fold loss in binding affinity

- IC50 [8, 9]: 0.1 nM
- IC50 ([8]; labeled ligand 125I-C013, read-out: IC50 exhibited by the unlabeled ligand): 0.15 nM
- IC50 ([8]; labeled ligand 125I-C064, read-out: IC50 exhibited by the unlabeled ligand): 0.093 nM
B1: C5a: 74 amino acid protein derived from the fifth component of serum complement during complement activation (protein, UniProt P01031 678-751, looked up)
C5a anaphylatoxin: TLQKKIEEIAAKYKHSVVKKCCYDGACVNNDETCEQRAARISLGPRCIKAFTECCVVASQLRANISHKDMQLGR
modifications: C5a anaphylatoxin

— patent publication US5614370A, “Assay to identify human C5a antagonists and agonists” (Merck & Co., Inc., priority 1994, dated 1997)
